From ChEMBL document CHEMBL1146385, “Discovery of novel phenoxyacetic acid derivatives as antimycobacterial agents” (2007)
In brackets after ≈: the same amount, converted by molar mass.

System: Mycobacterium tuberculosis
Experiment: Antimycobacterial activity against isoniazid-resistant Mycobacterium tuberculosis by broth dilution assay
Format: functional

| Compound | MIC [µg/mL] |
| --- | --- |
| COc1cc(C2=NN(C(N)=S)C(c3ccccc3Cl)C2)ccc1OCC(=O)O (configuration not stated) | 0.12 (≈ 0.286 µM) |
| COc1cc(C2=NN(C(N)=O)C(c3ccc(F)cc3)C2)ccc1OCC(=O)O (configuration not stated) | 3.25 (≈ 8.39 µM) |
| COc1cc(C2=NN(C(N)=O)C(c3cccc([N+](=O)[O-])c3)C2)ccc1OCC(=O)O (configuration not stated) | 6.25 (≈ 15.1 µM) |
| COc1cc(C2=NN(C(N)=S)C(c3ccc(C)cc3)C2)ccc1OCC(=O)O (configuration not stated) | 6.15 (≈ 15.4 µM) |
| COc1cc(C2=NN(C(N)=S)C(Cc3ccccc3)C2)ccc1OCC(=O)O (configuration not stated) | 6.25 (≈ 15.6 µM) |
| COc1cc(C2=NN(C(N)=S)C(c3ccc(N)cc3)C2)ccc1OCC(=O)O (configuration not stated) | 12.5 (≈ 31.2 µM) |
| COc1cc(C2=NN(C(N)=S)C(c3ccc(O)cc3)C2)ccc1OCC(=O)O (configuration not stated) | 0.2 (≈ 0.498 µM) |
| COc1cc(C2=NN(C(N)=O)C(Cc3ccccc3)C2)ccc1OCC(=O)O (configuration not stated) | 6.25 (≈ 16.3 µM) |
| COc1cc(C2=NN(C(N)=O)C(c3ccc([N+](=O)[O-])cc3)C2)ccc1OCC(=O)O (configuration not stated) | 6.25 (≈ 15.1 µM) |
| COc1cc(C2=NN(C(N)=O)C(c3ccc(N)cc3)C2)ccc1OCC(=O)O (configuration not stated) | 5.42 (≈ 14.1 µM) |
| COc1cc(C2=NN(C(N)=S)C(c3cccc([N+](=O)[O-])c3)C2)ccc1OCC(=O)O (configuration not stated) | 3.12 (≈ 7.25 µM) |
| COc1cc(C2=NN(C(N)=O)C(c3ccc(Cl)cc3)C2)ccc1OCC(=O)O (configuration not stated) | 0.13 (≈ 0.322 µM) |
| COc1cc(C2=NN(C(N)=O)C(c3ccc(C)cc3)C2)ccc1OCC(=O)O (configuration not stated) | 6.25 (≈ 16.3 µM) |
| COc1cc(C2=NN(C(N)=S)C(c3ccc([N+](=O)[O-])cc3)C2)ccc1OCC(=O)O (configuration not stated) | 6.25 (≈ 14.5 µM) |
| COc1cc(C2=NN(C(N)=O)C(c3ccc(O)cc3)C2)ccc1OCC(=O)O (configuration not stated) | 1.23 (≈ 3.19 µM) |
| COc1cc(C2=NN(C(N)=O)C(c3ccccc3O)C2)ccc1OCC(=O)O (configuration not stated) | 0.58 (≈ 1.51 µM) |
| COc1cc(C2=NN(C(N)=S)C(c3ccccc3)C2)ccc1OCC(=O)O (configuration not stated) | 6.25 (≈ 16.2 µM) |
| COc1cc(C2=NN(C(N)=O)C(c3ccccc3Cl)C2)ccc1OCC(=O)O (configuration not stated) | 1.26 (≈ 3.12 µM) |
| COc1cc(C2=NN(C(N)=O)C(c3ccccc3)C2)ccc1OCC(=O)O (configuration not stated) | 6.12 (≈ 16.6 µM) |
| COc1cc(C2=NN(C(N)=S)C(c3ccc(Cl)cc3)C2)ccc1OCC(=O)O (configuration not stated) | 0.06 (≈ 0.143 µM) |
| COc1cc(C2=NN(C(N)=S)C(c3ccccc3O)C2)ccc1OCC(=O)O (configuration not stated) | 0.58 (≈ 1.44 µM) |
| COc1cc(C2=NN(C(N)=S)C(c3ccc(F)cc3)C2)ccc1OCC(=O)O (configuration not stated) | 0.96 (≈ 2.38 µM) |
